Data set [1] relates to KG-1 cells. As to the kind of experiment: Cell viability CTG assay, KG-1. Type of data set: cell-based. As to conditions: Homo sapiens, 72 hours treatment, read-out: KG-1 Geomean absolute IC50. On the procedure: (§1) The effect of selected compounds of the invention on cell viability in various cell lines was investigated using the Cell Viability—CTG Assay Protocol below.
(§2) Hep3B, Hep3B GSPT1 G575N mut., Kelly, KG-1 and NCI-H929 cells were maintained in respective cell medium (see Table 5, below). Cells were seeded in appropriate density (see Table 6, below) onto 384-white plates (Greiner, cat. no. 781080 or 781098) and incubated overnight (Hep3B, Hep3B GSPT1 G575N, Kelly) or treated with compounds immediately after seeding (KG-1, NCI-H929). Tested compounds and DMSO (vehicle control) were dispensed to the plates using Echo 555 Liquid Handler. 12 data-point compound titration curve with concentrations ranging from 50 μM to 1 nM was used. Final DMSO concentration was kept constant at 0.25% v/v across the assay plate. After 72 h incubation (37° C., 5% CO2), cell viability was assessed using CellTiter-Glo® assay kit (Promega, cat. no G7573). Luminescence was measured using CLARIOstar multimode plate reader (BMG LABTECH). The raw data (the relative luminescence unit values, RLU) were uploaded under the relevant protocol and analysed in CDDVault data management platform. Luminescence (RLU) values were normalized to the controls, and reported absolute IC50 values were calculated in CDDVault using non-linear regression and appropriate equations.

Data set [2] has as its system Kelly cells. As to the kind of experiment: Cell viability CTG assay, Kelly. The format is cell-based. The settings on record: 72 hours treatment, read-out: Kelly Geomean absolute IC50. On the procedure: as §1, §2
Data set [3] concerns NCI-H929 cells. As to the kind of experiment: Cell viability CTG assay, NCI-H929. Type of data set: cell-based. The settings on record: Homo sapiens, 72 hours treatment, read-out: NCI-H929 Geomean absolute IC50. On the procedure:
as §1, §2

Data set [4] concerns Hep3B cells. As to the kind of experiment: Cell viability CTG assay, Hep3B. The format is cell-based. As to conditions: Homo sapiens, 72 hours treatment, read-out: Hep3B Geomean absolute IC50. How it is done:
as §1, §2

Data set [5] deals with Hep3B GSPT1 G575N mut. cells. As to the kind of experiment: Cell viability CTG assay, Hep3B GSPT1 G575N mut. Type of data set: cell-based. The settings on record: Homo sapiens, 72 hours treatment, read-out: Hep3B GSPT1 G575N Geomean absolute IC50. How it is done: as §1, §2
A short description of data set [6]: Chemical stability in MV-4-11 medium. The settings on record: 37° C.
Method: Next, 500 μL of each solution was transferred to the 96-deep-well plate. Three replicates for each compound were performed. Plate was afterwards incubated at 37° C. with shaking (220 rpm). 50 μL of sample were withdrawn for the each timepoint (0, 1, 3, 6, 24, 48, 72, and 168 hours) and immediately mixed with 50 μL of acetonitrile. Next, samples were centrifuged at 3900 rpm, 10° C. for 20 minutes. 40 μL of supernatant was diluted with 120 μL of acetonitrile containing internal standard (IS) (10 μM), mixed, and analyzed by LC-MS/MS.
Thermo Fisher Scientific Altis+ coupled with a Vanquish system were used for UHPLC-MS/MS analysis. Analytes were separated on a Kinetex XB-C18 2.6 μm, 50×2.1 mm column, using gradient of water with 0.1% (v/v) formic acid (solvent A) and acetonitrile with 0.1% (v/v) formic acid (solvent B): 0.0 min 5% B, 0.5 min 5% B, 1.0 min 70% B, 3.0 min 95% B, 3.5 min 95% B, 3.7 min 5% B, 5 min 5% B. The mobile phase flow rate was set to 0.3 mL/min and the column was kept in 40° C. 1 μL of samples were injected. The MS/MS analysis was performed using SRM mode in positive ionization. Source parameters were set as follow: Ion Source Type H-ESI, Spray Voltage 3800 V, Sheath Gas 50 Arb, Aux Gas 10 Arb, Sweep Gas 1 Arb, Ion Transfer Tube Temp 325° C., Vaporizer Temp 350° C., Collision Gas Pressure 1.5 mTorr, Q1/Q3 Resolution (FWHM) 0.7. Three transitions were monitored for each analyte and for the internal standard:
Quantitation was based on the peak area ratio between the test compound and IS. The amount of compound remaining in the sample was calculated as follow:
The slope of logarithmic curve of percent remaining versus time has been used for calculation of half-life (t_half). First, the elimination constant (k) was calculated using the equation:
Next, half-life (t_half) was calculated using equation:

For orientation: IC50 means the midpoint of a concentration-inhibition curve.

Turning to `Cc1ccc(NC(=S)NCc2ccc3cc(C4CCC(=O)NC4=O)c(C)nc3c2)cc1Cl` (stereo not shown) [Compound 2, 1-(3-chloro-4-methylphenyl)-3-((3-(2,6-dioxopiperidin-3-yl)-2-methylquinolin-7-yl)methyl)thiourea], the IC50 in data set [1] is 1 to 5 µM; in data set [2] it was 1 to 5 µM; in data set [3], over 5 µM; in data set [4] it was over 5 µM; in data set [5], over 5 µM.
In the case of `Cc1ccc(NC(=O)OCc2ccc3cc(C4CCC(=O)NC4=O)c(C)nc3c2)cc1Cl` (stereo not shown) [Compound 4, (3-(2,6-dioxopiperidin-3-yl)-2-methylquinolin-7-yl)methyl (3-chloro-4-methylphenyl)carbamate], the IC50 in data set [1] was at most 0.1 µM; in data set [2], at most 0.1 µM; in data set [3], at most 0.1 µM; in data set [4], at most 0.1 µM; in data set [5] it was over 5 µM. The “% remaining at 24 hrs” value in data set [6] (concentration 1 μM) was “a (a≥50%)”; in data set [6] (concentration 10 μM) it was “b (25%≤b<50%)”. The “t_half [hours]” value in data set [6] (concentration 1 μM) and in data set [6] (concentration 10 μM) was “A (A≥15 hrs)” each time.
As to `Cc1ccc(NC(=O)OCc2ccc3nc(C)c(C4CCC(=O)NC4=O)cc3c2)cc1Cl` (stereo not shown) [Compound 5, (3-(2,6-dioxopiperidin-3-yl)-2-methylquinolin-6-yl)methyl (3-chloro-4-methylphenyl)carbamate], the IC50 in data set [1] was at most 0.1 µM; in data set [2], at most 0.1 µM; in data set [3], at most 0.1 µM; in data set [4], at most 0.1 µM; in data set [5] it was over 5 µM.

For the origin of these results see patent US20260232682A1, “GSPT1 DEGRADER COMPOUNDS” (Captor Therapeutics S.A., priority 2023, published 2026).
